# Columns and labels:
# Assay in all cases: Protein kinase inhibition assay
# Format in all cases: biochemical
# Aurora-A(h) = Aurora-A(h) (Homo sapiens, UniProt O14965); conditions: read-out: percent residual activity of Aurora-A(h)
# Protocol: (§1) Certain compounds were tested for activity in protein kinase inhibition assays. All substrates were dissolved and diluted to working stocks in de-ionized water, apart from histone H1 (10× working stock in 20 mM MOPS pH 7.0), PDKtide (10× working stock in 50 mM Tris pH 7.0) ATF2 (which is typically stored at a 20× working stock in 50 mM Tris pH 7.5, 150 mM NaCl, 0.1 mM EGTA, 0.03% Brij-35, 50% glycerol, 1 mM benzamidine, 0.2 mM PMSF and 0.1% R-mercaptoethanol), KKLNRTLSFAEPG (SEQ ID NO:203) and RRRLSFAEPG (SEQ ID NO:204) (50 mM HEPES pH 7.4) and GGEEEEYFELVKKKK (SEQ ID NO:205) (20 mM MOPS pH 7.0). All kinases were pre-diluted to a 10× working concentration prior to addition into the assay. The composition of the dilution buffer for each kinase is detailed below.
# (§2) In a final reaction volume of 25 μl, Aurora-A (h) (5-10 mU) is incubated with 8 mM MOPS pH 7.0, 0.2 mM EDTA, 200 μM LRRASLG (SEQ ID NO:209) (Kemptide), 10 mM MgAcetate and [gamma-33P-ATP] (specific activity approx. 500 cpm/pmol, concentration as required). The reaction is initiated by the addition of the MgATP mix. After incubation for 40 minutes at room temperature, the reaction is stopped by the addition of 5 μl of a 3% phosphoric acid solution. […]
# cKit(D816V)(h) = cKit(D816V)(h) (Homo sapiens, UniProt P10721, D816V); conditions: read-out: percent residual activity of cKit(D816V)(h)
# Protocol: as §1
# as §2, with “cKit (D816V)” for “Aurora-A”, “10 mM MnCl2, 0.1 mg/ml poly(Glu, Tyr) 4:1,” for “200 μM LRRASLG (SEQ ID NO:209) (Kemptide),”
# Fyn(h) = Fyn(h) (Homo sapiens, UniProt P06241); conditions: read-out: percent residual activity of Fyn(h)
# Protocol: as §1
# In a final reaction volume of 25 μl, Fyn (h) (5-10 mU) is incubated with 50 mM Tris pH 7.5, 0.1 mM EGTA, 0.1 mM Na3VO4, 250 μM KVEKIGEGTYGVVYK (SEQ ID NO:220) (Cdc2 peptide), 10 mM MgAcetate and [gamma-33P-ATP] (specific activity approx. 500 cpm/pmol, concentration as required). The reaction is initiated by the addition of the MgATP mix. After incubation for 40 minutes at room temperature, the reaction is stopped by the addition of 5 μl of a 3% phosphoric acid solution. […]
# JNK3(h) = JNK3(h) (Homo sapiens, UniProt P53779); conditions: read-out: percent residual activity of JNK3(h)
# Protocol: as §1
# In a final reaction volume of 25 μl, JNK3 (h) (5-10 mU) is incubated with 50 mM Tris pH 7.5, 0.1 mM EGTA, 0.1% R-mercaptoethanol, 250 μM peptide, 10 mM MgAcetate and [gamma-33P-ATP] (specific activity approx. 500 cpm/pmol, concentration as required). The reaction is initiated by the addition of the MgATP mix. After incubation for 40 minutes at room temperature, the reaction is stopped by the addition of 5 μl of a 3% phosphoric acid solution. 10 μl of the reaction is then spotted onto a P30 filtermat and washed three times for 5 minutes in 75 mM phosphoric acid and once in methanol prior to drying and scintillation counting.
# MKK6(h) = MKK6(h) (Homo sapiens, UniProt P52564); conditions: read-out: percent residual activity of MKK6(h)
# Protocol: as §1
# The reaction is initiated by the addition of the MgATP. After incubation for 40 minutes at room temperature, 5 μl of this incubation mix is used to initiate a SAPK2a (h) assay, which is described on page 18 of this book.
# PKCβII(h) = PKCβII(h) (Homo sapiens, UniProt P05771); conditions: read-out: percent residual activity of PKCβII(h)
# Protocol: as §1
# (§3) In a final reaction volume of 25 μl, PKCβII (h) (5-10 mU) is incubated with 20 mM HEPES pH 7.4, 0.03% Triton X-100, 0.1 mM, 0.1 mg/ml phosphatidylserine, 10 μg/ml diacylglycerol, 0.1 mg/ml histone H1, 10 mM MgAcetate and [gamma-33P-ATP] (specific activity approx. 500 cpm/pmol, concentration as required). The reaction is initiated by the addition of the MgATP mix. After incubation for 40 minutes at room temperature, the reaction is stopped by the addition of 5 μl of a 3% phosphoric acid solution. […]
# PKCδ(h) = PKCδ(h) (Homo sapiens, UniProt Q05655); conditions: read-out: percent residual activity of PKCδ(h)
# Protocol: as §1
# as §3, with “PKCδ” for “PKCβII”, “0.1” for “0.1 mM, 0.1”, “50 μM ERMRPRKRQGSVRRRV (SEQ ID NO:224),” for “0.1 mg/ml histone H1,”
# Chain of Fyn(h) (P06241 whole entry): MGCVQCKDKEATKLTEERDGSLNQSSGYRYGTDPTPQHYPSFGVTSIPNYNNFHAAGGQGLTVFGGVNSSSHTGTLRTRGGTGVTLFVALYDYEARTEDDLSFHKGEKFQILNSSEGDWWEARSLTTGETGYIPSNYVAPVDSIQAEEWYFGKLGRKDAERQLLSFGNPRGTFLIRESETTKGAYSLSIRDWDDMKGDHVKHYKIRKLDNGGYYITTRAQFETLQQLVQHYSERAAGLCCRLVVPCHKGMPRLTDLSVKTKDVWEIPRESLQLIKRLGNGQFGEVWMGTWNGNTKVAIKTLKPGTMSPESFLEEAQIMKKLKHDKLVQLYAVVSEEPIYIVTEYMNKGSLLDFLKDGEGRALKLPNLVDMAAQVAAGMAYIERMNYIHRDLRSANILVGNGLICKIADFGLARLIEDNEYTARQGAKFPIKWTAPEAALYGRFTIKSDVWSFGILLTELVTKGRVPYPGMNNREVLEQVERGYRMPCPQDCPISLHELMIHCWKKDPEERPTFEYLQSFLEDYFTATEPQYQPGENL
# Chain of MKK6(h) (P52564 whole entry): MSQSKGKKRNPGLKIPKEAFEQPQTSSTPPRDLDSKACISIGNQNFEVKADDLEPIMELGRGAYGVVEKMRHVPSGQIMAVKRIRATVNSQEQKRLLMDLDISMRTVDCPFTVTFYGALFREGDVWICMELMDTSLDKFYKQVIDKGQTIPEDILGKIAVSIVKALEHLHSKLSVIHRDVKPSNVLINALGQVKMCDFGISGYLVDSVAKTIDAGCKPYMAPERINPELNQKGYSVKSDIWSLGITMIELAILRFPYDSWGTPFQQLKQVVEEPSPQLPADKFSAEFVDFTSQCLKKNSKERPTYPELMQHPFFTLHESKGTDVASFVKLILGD
# Chain of JNK3(h) (P53779 whole entry): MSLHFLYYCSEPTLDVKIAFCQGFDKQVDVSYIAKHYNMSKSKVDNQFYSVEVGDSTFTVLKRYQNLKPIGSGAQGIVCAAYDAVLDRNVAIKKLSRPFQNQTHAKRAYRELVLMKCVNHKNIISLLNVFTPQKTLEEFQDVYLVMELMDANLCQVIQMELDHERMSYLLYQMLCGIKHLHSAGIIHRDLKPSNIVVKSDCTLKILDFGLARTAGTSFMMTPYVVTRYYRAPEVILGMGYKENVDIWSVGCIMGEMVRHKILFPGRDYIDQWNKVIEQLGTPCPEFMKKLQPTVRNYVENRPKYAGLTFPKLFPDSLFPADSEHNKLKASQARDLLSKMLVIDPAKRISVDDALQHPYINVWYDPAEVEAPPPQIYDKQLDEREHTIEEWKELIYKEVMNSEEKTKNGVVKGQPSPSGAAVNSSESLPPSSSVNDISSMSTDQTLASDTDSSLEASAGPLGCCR
# Chain of Aurora-A(h) (O14965 whole entry): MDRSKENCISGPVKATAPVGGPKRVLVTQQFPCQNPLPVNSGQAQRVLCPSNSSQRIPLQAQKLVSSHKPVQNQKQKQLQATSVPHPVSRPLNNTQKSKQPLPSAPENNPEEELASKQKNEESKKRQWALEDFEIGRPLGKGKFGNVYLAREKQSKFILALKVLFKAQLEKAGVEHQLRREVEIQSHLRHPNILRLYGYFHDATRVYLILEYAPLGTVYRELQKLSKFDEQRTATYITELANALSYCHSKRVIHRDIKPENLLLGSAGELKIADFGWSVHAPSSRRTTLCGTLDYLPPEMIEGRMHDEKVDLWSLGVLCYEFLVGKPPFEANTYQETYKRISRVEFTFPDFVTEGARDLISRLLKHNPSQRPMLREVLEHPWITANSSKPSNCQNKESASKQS
# Chain of PKCδ(h) (Q05655 whole entry): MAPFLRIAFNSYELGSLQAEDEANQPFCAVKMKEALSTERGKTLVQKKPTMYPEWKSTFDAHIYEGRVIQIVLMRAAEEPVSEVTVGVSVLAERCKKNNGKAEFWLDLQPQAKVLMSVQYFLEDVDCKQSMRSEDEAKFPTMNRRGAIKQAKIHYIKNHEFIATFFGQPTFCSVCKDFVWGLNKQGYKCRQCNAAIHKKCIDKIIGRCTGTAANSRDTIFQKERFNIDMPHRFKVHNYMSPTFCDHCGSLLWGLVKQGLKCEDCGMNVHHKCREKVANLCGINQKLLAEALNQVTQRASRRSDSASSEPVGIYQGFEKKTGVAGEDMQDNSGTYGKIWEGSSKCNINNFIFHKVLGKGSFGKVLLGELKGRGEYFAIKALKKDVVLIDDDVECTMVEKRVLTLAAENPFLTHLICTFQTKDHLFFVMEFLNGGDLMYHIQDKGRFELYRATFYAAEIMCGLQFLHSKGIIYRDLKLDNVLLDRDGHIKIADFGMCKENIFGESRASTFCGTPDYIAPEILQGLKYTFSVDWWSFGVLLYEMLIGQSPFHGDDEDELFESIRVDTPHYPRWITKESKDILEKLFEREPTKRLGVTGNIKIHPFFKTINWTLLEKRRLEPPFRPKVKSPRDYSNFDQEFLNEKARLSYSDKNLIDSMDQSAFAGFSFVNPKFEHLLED
# Chain of cKit(D816V)(h) (P10721 26-976 D816V): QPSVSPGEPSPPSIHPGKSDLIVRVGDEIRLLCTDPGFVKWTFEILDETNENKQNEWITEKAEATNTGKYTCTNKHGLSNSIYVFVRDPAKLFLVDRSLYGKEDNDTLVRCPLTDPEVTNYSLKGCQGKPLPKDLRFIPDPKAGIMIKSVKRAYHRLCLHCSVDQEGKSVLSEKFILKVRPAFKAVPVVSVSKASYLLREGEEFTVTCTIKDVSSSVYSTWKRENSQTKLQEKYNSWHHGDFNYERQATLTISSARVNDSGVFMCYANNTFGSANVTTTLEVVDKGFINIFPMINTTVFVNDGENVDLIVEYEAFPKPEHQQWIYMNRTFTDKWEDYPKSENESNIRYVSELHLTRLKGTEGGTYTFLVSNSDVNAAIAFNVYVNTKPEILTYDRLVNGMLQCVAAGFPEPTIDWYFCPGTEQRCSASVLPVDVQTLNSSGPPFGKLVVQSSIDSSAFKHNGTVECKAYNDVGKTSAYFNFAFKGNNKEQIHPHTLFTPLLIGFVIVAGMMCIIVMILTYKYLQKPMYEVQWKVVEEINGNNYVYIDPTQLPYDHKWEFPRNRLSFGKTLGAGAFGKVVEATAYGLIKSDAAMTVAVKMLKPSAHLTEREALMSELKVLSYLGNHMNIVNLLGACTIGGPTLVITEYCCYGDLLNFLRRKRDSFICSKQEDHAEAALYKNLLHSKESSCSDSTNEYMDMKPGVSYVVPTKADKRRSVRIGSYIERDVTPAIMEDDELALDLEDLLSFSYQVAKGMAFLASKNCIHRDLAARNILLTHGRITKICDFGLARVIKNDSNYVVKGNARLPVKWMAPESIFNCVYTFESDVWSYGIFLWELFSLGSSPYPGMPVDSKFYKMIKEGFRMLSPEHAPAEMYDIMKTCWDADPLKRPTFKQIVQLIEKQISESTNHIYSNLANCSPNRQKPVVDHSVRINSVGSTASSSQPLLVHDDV
# Chain of PKCβII(h) (P05771 1-673 isoform P05771-2): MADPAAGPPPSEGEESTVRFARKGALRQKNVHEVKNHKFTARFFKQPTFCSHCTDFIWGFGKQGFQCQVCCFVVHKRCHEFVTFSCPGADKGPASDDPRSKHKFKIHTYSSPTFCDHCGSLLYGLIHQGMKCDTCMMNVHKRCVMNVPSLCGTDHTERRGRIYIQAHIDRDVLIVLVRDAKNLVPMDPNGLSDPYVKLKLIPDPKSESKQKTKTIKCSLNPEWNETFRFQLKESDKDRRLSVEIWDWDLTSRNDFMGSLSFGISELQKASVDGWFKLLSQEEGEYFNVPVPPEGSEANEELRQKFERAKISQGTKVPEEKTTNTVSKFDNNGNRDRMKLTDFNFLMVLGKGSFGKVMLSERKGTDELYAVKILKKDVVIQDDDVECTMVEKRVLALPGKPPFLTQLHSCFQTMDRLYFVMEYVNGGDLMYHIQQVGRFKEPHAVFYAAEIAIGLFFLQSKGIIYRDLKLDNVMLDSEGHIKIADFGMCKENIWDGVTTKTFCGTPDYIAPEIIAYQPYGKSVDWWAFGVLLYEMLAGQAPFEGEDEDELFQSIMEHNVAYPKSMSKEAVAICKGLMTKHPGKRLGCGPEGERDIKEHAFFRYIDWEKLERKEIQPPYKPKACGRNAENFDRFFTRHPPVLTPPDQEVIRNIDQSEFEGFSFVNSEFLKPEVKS
remaining activity at 2.5 µM (Aurora-A(h)),remaining activity at 2.5 µM (cKit(D816V)(h)),remaining activity at 2.5 µM (Fyn(h)),remaining activity at 2.5 µM (JNK3(h)),remaining activity at 2.5 µM (MKK6(h)),remaining activity at 2.5 µM (PKCβII(h)),remaining activity at 2.5 µM (PKCδ(h)),SMILES
104%,103%,85%,98%,90%,99%,100%,CC(=O)N1CCN(c2ccc3c(=O)c(C(=O)NCCN4CCCC4)c4n(C)c5ccccc5n4c3n2)CC1 [Compound B-1]
43%,104%,97%,97%,100%,94%,105%,CN1CCCC1CCNC(=O)c1cn2c3c(c(N4CCC(c5cnccn5)C4)c(F)cc3c1=O)Oc1cc3ccccc3cc1-2 (centres unmarked) [Compound A-1]

# From US20070117770A1, “Human ribosomal DNA (rDNA) and ribosomal RNA (rRNA) nucleic acids and uses thereof” (Cylene Pharmaceuticals, Inc., priority 2005, published 2007)
